Activity calls are given as the source filed them. No cut-off for these calls is given here.
Experiments:
[1] = biological target: Amyloid-beta precursor protein (Homo sapiens) (UniProt P05067); assay: Inhibition of self induced amyloid beta (1 to 42 residues) (unknown origin) aggregation at 10 uM by thioflavin T based fluorescence analysis relative to control
PC-12 = assay: Neuroprotective activity against amyloid beta (1 to 42 residues) induced cell damage in rat PC12 cells at 100 uM by MTT assay relative to control; assay type: functional
[2] = Antioxidant activity assessed as DPPH radical scavenging activity incubated for 30 mins in dark by UV/visible spectrophotometric analysis; assay type: functional
Acetylcholinesterase [3] = biological target: T1, Acetylcholinesterase (Homo sapiens, UniProt P22303); assay: Inhibition of human erythrocyte AChE using acetylthiocholine iodide as substrate preincubated for 30 mins followed by substrate addition and measured after 30 mins by DTNB based Ellman's method
Cholinesterase [4] = biological target: T2, Cholinesterase (Homo sapiens, UniProt P06276); assay: Inhibition of human serum BChE using butyrylthiocholine iodide as substrate preincubated for 30 mins followed by substrate addition and measured after 30 mins by DTNB based Ellman's method
Beta-secretase 1 [5] = biological target: T3, Beta-secretase 1 (Homo sapiens, UniProt P56817); assay: Inhibition of human BACE-1 measured after 2 hrs by FRET assay
in vitro = conditions: PAMPA
[6] = biological target: Cholinesterase (Equus caballus) (UniProt P81908); assay: Inhibition of horse serum BChE at 100 uM preincubated for 10 mins followed by substrate addition and measured after 15 mins by Ellman's method relative to control; conditions: time 25.0 min
[7] = Drug concentration in male Wistar rat brain homogenate at 10 mg/kg, po measured after 4 days; assay type: ADME, organism-based; conditions: time 4 day, read-out: Ct
[8] = Drug concentration in male Wistar rat brain homogenate at 20 mg/kg, po measured after 4 days; assay type: ADME, organism-based; conditions: time 4 day, read-out: Ct
Acetylcholinesterase [9] = biological target: T1, Acetylcholinesterase; assay: Inhibition of human AChE
Cholinesterase [10] = biological target: T2, Cholinesterase; assay: Inhibition of human BChE
Beta-secretase 1 [11] = biological target: T3, Beta-secretase 1; assay: Inhibition of human BACE-1
Beta-secretase 1 [12] = biological target: T3, Beta-secretase 1; assay: Inhibition of C-terminal 10-His tagged recombinant human BACE-1 using Mca-Ser-Glu-Val-Asn-Leu-Asp-Ala-Glu-Phe-Arg-Lys(Dnp)-Arg-Arg-NH2 as substrate pretreated for 10 mins followed by substrate addition and measured every 5 mins for 120 mins
Beta-secretase 1 [13] = biological target: T3, Beta-secretase 1; assay: Inhibition of BACE-1 in human SH-SY5Y cells transfected with human APP695 measured after 24 hrs by ELISA; assay type: cell-based
[14] = Cytotoxicity against human SH-SY5Y cells by MTT assay; assay type: toxicity, cell-based
Acetylcholinesterase [15] = biological target: T1, Acetylcholinesterase; assay: Inhibition of AChE (unknown origin) at 10 uM relative to control
Cholinesterase [16] = biological target: T2, Cholinesterase; assay: Inhibition of BChE (unknown origin) at 10 uM relative to control
Beta-secretase 1 [17] = biological target: T3, Beta-secretase 1; assay: Inhibition of human BACE-1 by FRET assay
[18] = biological target: Amyloid-beta precursor protein (Homo sapiens) (UniProt P05067); assay: Inhibition of amyloid beta (1 to 42 residues) (unknown origin) aggregation assessed as reduction in massive oligomers measured after 3 days by AFM analysis; conditions: time 3.0 day
[19] = biological target: Amyloid-beta precursor protein (Homo sapiens) (UniProt P05067); assay: Inhibition of amyloid beta (1 to 42 residues) (unknown origin) aggregation assessed as reduction in fibrils measured after 3 days by AFM analysis; conditions: time 3.0 day
Acetylcholinesterase [20] = biological target: T1, Acetylcholinesterase; assay: Inhibition of AChE (unknown origin)

T3 sequence (P56817 whole entry): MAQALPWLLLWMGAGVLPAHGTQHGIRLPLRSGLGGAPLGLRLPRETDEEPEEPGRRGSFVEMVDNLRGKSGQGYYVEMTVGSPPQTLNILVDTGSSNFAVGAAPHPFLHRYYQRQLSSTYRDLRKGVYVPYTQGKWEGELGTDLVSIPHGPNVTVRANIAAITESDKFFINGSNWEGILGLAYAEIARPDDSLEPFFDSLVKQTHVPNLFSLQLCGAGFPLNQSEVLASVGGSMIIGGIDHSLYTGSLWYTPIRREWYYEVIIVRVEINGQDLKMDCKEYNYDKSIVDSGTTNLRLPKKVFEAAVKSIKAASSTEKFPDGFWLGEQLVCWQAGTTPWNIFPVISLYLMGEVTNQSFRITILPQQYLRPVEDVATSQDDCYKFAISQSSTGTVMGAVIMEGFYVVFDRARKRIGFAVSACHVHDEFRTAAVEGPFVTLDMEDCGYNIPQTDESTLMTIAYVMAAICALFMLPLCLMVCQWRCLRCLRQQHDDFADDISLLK
Sequence of Amyloid-beta precursor protein (Homo sapiens) (P05067 whole entry, the tested form may be a part): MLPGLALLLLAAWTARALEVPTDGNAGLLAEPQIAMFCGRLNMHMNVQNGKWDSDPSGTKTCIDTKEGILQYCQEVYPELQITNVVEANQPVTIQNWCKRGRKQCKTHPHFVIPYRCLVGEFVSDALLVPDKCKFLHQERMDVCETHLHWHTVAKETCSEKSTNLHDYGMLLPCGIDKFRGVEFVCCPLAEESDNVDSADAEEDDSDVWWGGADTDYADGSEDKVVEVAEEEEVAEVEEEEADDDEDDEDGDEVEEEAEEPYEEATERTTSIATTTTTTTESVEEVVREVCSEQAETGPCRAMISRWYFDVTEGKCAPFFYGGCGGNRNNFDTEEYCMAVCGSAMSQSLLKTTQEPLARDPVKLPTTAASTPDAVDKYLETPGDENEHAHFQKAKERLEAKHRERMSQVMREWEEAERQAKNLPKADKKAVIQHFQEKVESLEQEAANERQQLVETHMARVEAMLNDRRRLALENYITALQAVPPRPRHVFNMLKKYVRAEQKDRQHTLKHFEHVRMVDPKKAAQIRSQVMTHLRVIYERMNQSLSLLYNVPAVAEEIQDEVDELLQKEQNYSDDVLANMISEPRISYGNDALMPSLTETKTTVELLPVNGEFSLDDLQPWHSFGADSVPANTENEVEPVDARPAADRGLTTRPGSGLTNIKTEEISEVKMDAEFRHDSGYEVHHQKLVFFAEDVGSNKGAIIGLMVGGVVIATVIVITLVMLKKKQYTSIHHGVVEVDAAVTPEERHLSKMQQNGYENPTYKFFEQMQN
T1 sequence (P22303 whole entry): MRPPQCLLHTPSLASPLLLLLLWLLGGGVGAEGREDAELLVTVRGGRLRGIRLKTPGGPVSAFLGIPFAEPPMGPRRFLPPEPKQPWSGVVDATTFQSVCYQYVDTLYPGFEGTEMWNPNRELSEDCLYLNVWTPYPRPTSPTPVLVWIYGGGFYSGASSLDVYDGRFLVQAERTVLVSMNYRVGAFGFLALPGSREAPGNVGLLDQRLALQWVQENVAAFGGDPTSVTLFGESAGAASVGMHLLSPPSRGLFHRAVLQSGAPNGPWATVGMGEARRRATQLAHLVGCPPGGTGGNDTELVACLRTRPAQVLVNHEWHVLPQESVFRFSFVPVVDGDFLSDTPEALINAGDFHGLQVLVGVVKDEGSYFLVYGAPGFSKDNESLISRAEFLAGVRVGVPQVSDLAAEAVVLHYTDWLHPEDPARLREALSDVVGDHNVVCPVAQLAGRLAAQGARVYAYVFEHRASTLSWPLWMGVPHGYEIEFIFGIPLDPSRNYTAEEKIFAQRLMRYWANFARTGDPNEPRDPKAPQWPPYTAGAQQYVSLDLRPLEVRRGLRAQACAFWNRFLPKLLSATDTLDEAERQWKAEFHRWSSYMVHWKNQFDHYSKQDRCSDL
T2 sequence (P06276 whole entry): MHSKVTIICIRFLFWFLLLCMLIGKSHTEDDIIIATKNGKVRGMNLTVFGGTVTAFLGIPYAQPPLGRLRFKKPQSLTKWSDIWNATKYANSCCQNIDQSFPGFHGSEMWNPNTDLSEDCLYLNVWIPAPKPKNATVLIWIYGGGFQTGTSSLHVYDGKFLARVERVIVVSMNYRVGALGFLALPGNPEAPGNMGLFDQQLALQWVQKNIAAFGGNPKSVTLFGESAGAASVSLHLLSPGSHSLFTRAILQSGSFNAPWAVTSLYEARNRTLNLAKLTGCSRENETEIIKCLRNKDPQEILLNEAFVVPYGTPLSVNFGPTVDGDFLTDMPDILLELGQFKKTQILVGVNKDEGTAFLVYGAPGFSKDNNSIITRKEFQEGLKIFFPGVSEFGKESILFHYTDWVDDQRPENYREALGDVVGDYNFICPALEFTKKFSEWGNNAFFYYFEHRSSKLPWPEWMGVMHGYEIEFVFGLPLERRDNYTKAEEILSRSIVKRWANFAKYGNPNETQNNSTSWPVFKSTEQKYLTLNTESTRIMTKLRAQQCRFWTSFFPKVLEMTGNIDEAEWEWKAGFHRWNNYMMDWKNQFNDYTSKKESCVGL
Sequence of Cholinesterase (Equus caballus) (P81908 whole entry): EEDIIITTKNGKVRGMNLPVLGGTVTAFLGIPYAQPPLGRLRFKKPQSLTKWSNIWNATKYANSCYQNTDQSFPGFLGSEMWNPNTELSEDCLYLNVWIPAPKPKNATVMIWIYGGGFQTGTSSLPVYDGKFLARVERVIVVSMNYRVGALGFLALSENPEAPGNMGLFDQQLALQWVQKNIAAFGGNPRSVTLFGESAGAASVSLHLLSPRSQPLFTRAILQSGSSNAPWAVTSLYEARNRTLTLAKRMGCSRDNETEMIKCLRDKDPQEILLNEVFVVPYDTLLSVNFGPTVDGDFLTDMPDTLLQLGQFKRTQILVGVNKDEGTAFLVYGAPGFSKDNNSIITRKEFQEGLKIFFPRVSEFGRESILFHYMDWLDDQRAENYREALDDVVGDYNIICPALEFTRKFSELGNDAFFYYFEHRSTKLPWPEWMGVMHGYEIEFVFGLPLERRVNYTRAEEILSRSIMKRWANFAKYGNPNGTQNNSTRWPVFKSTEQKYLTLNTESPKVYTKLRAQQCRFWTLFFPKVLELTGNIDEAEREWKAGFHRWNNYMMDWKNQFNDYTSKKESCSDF

Row | Structure (SMILES) | IC50 (Acetylcholinesterase [3]) [nM] | IC50 (Cholinesterase [4]) [nM] | IC50 (Beta-secretase 1 [5]) [nM] | further results
1 | COc1cc2c(Nc3ccc(C(=O)/C=C/c4nc(C)c(C)nc4C)cc3)ncnc2c(OC)c1OC |  |  |  | inhibition [1]: 26.7%; Activity (PC-12): 77%
2 | Cn1c(N/N=C/c2cccc(Cl)c2Cl)nc2ccccc2c1=O |  |  |  | IC50 [2]: > 100000 nM
3 | COc1cc2ncnc(N3CCN(c4ccc([N+](=O)[O-])cc4)CC3)c2cc1OC | 481 | > 10000 | 729 | Papp at 18 h, 25 ug/ml (in vitro): 4.81 ×10⁻⁶ cm/s
4 | COc1cc2ncnc(N3CCN(c4ccccn4)CC3)c2cc1OC | 1150 | > 10000 | 1560 | 
5 | COc1cc2ncnc(N3CCN(c4ccc(C)cc4)CC3)c2cc1OC | 1170 | > 10000 | 1880 | 
6 | Cc1ccccc1-n1c(SCC(=O)N/N=C/c2ccc(Br)cc2)nc2ccccc2c1=O |  |  |  | inhibition [6]: 6.8%
7 | c1ccc(CN2CCN(c3nc(-c4ccccc4)nc4ccccc34)CC2)cc1 |  |  |  | concentration at 96 h [7]: 15 ng/mL; concentration at 96 h [8]: 54 ng/mL; IC50 (Acetylcholinesterase [9]): 191 nM; IC50 (Cholinesterase [10]): > 10000 nM; IC50 (Beta-secretase 1 [11]): 254000 nM
8 | CC1c2cc(Oc3ccccc3)ccc2N=C(N)N1CCCC(=O)N(Cc1ccnn1C)C1CCCCC1 (centres undefined) |  |  |  | IC50 (Beta-secretase 1 [12]): 380 nM; IC50 (Beta-secretase 1 [13]): 140 nM; IC50 [14]: 11800 nM
9 | COc1cc2ncnc(N3CCN(Cc4ccc(C)cc4)CC3)c2cc1OC | 1020 | > 10000 | 1430 | 
10 | COc1cc2ncnc(N3CCN(C)CC3)c2cc1OC | 1270 | > 10000 | 3280 | 
11 | C#CCN(C)c1nc(NC2CCCCC2)c2ccc(Cl)cc2n1 |  |  |  | inhibition (Acetylcholinesterase [15]): 3%; inhibition (Cholinesterase [16]): 3%
12 | COc1cc2ncnc(N3CCN(c4ccc(F)cc4)CC3)c2cc1OC | 1040 | > 10000 | 1470 | 
13 | COc1cc2ncnc(N3CCN(c4ccccc4[N+](=O)[O-])CC3)c2cc1OC | 914 | > 10000 | 1820 | 
14 | FC(F)(F)c1ccc(-c2nnc(NC3CCN(Cc4ccccc4)CC3)o2)cc1 |  |  |  | IC50 (Beta-secretase 1 [17]): 146 nM
15 | COc1cc2ncnc(N3CCN(C(c4ccccc4)c4ccccc4)CC3)c2cc1OC | 436 | > 10000 | 662 | Papp at 18 h, 25 ug/ml (in vitro): 6.28 ×10⁻⁶ cm/s
16 | COc1cc(/C=C/C(=O)CC(=O)/C=C/c2ccc(O)c(OC)c2)ccc1O |  |  |  | inhibition [18]: Active; inhibition [19]: Active
17 | COc1cc2ncnc(N3CCN(C(C)=O)CC3)c2cc1OC | 1190 | > 10000 | 3660 | 
18 | O=C(CCN1CCCCC1)Nc1ccc2nc(-c3cc4ccccc4[nH]3)[nH]c(=O)c2c1 |  |  |  | IC50 (Acetylcholinesterase [20]): 21 nM
19 | COc1cc2ncnc(N3CCN(Cc4ccc(F)cc4)CC3)c2cc1OC | 932 | > 10000 | 2920 | 
20 | COc1cc2ncnc(N3CCN(c4ccc(Br)cc4)CC3)c2cc1OC | 973 | > 10000 | 1710 | 
21 | COc1cc2ncnc(N3CCN(Cc4ccc(Cl)cc4)CC3)c2cc1OC | 921 | > 10000 | 1650 | 
22 | COc1cc2ncnc(N3CCN(c4ccccc4)CC3)c2cc1OC | 1010 | > 10000 | 1310 | 

Source: ChEMBL document CHEMBL5500373, “Lead optimization based design, synthesis, and pharmacological evaluation of quinazoline derivatives as multi-targeting agents for Alzheimer's disease treatment” (Eur J Med Chem, 2024)
